2 compounds from patent US4379148A, “Analgesic and anti-inflammatory composition” (priority 1981, dated 1983) can be followed below.

The nature of data set [1]: Analgesic Test by Phenylquinone Writhing Method. The class given is in vivo, Male ddY mice. Particulars: for ED50: Mus musculus, po, read-out: ED50 (dose that reduced the number of writhes of the control group by 50%), drug alone. The procedure:
Male ddY mice (18-22 g) fasted for 18 hours were divided into test groups and a control group of 7 animals per group. […] The number of writhes was counted for 20 minutes after the p-phenylquinone injection.

The nature of data set [2]: Analgesic Test by Randall-Selitto Method (carrageenin inflammatory pain). It is filed as in vivo, Male Wistar rats. Particulars: for ED50: Rattus norvegicus, po, read-out: ED50 (dose that increased the mean pain threshold of the control group by 50%), drug alone. On the procedure: Male Wistar rats (120-140 g) fasted for 18 hours were divided into test groups and a control group of 5 animals per group. […] The pain threshold was measured after the carrageenin injection at hourly intervals for 3 hours with an analgesy meter (Ugo Basile, Milan).

The nature of data set [3]: Anti-inflammatory Test by Whittle's Method (acetic acid, dye in peritoneal exudate). It is filed as in vivo, Male ddY mice. To be noted: for ED30: Mus musculus, po, read-out: ED30 (dose which decreased the amount of dye of the control group by 30%), drug alone. On the procedure: Male ddY mice (18-22 g) fasted for 18 hours were divided into test groups and a control group of 7 or 8 animals each. […] Ten minutes later, 10 ml/kg of 0.7% acetic acid dissolved in physiological saline was injected intraperitoneally into all animals and 20 minutes thereafter the animals were sacrificed. The amount of the dye in the peritoneal exudate was determined at 590 nm by using a spectrophotometer (Hitachi Instrument Co.). The ED30 was defined as the dose which decreased the amount of dye of the control group by 30%, and was determined graphically.

For data set [4] the following is noted: p.o., combined with emorfazone 240 mg/kg.
A further data set can be described thus: in vivo. To be noted: mouse, po.
The conditions of data set [5]: in words.
Protocol: Female Sprague-Dawley rats (180-220 g) were used. […] On day 0 of the test, the adjuvant containing 0.6 mg of Mycobacterium butylicum (Difco) in 0.1 ml of liquid paraffin was injected into the plantar surface of the right hind paw. The test drugs were administered orally once a day for 15 days. The severity of inflammation of the 4 paws and the tail of each rat was evaluated visually at day 30 and scored by a point system. The grading for each lesion was on a 0 to 3 scale with 0 indicating absence of inflammation and 3 indicating maximum inflammation.
Data set [6] deals with biosynthesis of prostaglandin. Kind of data set: inhibition of the biosynthesis of prostaglandin. It is filed as biochemical. To be noted: in words.

Take `CC(=O)Oc1ccccc1C(=O)O` [Acetylsalicylic acid, acetylsalicylic acid]: the ED50 in data set [1] turned out to be 155 mg/kg; in data set [2], 340 mg/kg. For the same compound, the “combined analgesic effect with emorfazone” value in data set [1] (combination with emorfazone, in words) is recorded as “for the most part a synergistic response”. In addition, in data set [1] (p.o., combined with emorfazone 10 mg/kg (1/4 of its ED50)), the “ED50 dose obtained experimentally, with emorfazone 10” value turned out to be 115 mg/kg. Moreover, in data set [1] (p.o., combined with emorfazone 10 mg/kg, theoretical additive dose), the “theoretical additive ED50 dose, with emorfazone 10” value came to 116.3 mg/kg. Besides, in data set [1] (p.o., combined with emorfazone 20 mg/kg (1/2 of its ED50)), the “ED50 dose obtained experimentally, with emorfazone 20” value was determined as 40 mg/kg. Also, in data set [1] (p.o., combined with emorfazone 20 mg/kg, theoretical additive dose), the “theoretical additive ED50 dose, with emorfazone 20” value turned out to be 77.5 mg/kg. Further, the “ED50 dose obtained experimentally, with emorfazone 4.5” value in data set [2] (p.o., combined with emorfazone 4.5 mg/kg) is given as 240 mg/kg. In data set [2] (p.o., combined with emorfazone 4.5 mg/kg, theoretical additive dose), the “theoretical additive ED50 dose, with emorfazone 4.5” value was determined as 255 mg/kg. In data set [2] (p.o., combined with emorfazone 9 mg/kg), the “ED50 dose obtained experimentally, with emorfazone 9” value amounted to 70 mg/kg. Also, the “theoretical additive ED50 dose, with emorfazone 9” value in data set [2] (p.o., combined with emorfazone 9 mg/kg, theoretical additive dose) was 170 mg/kg. Also, the ED30 in data set [3] was found to be 225 mg/kg. For the same compound, the “ED30 dose obtained experimentally, with emorfazone 28.8” value in data set [3] (p.o., combined with emorfazone 28.8 mg/kg) is 160 mg/kg. Further, the “theoretical additive ED30 dose, with emorfazone 28.8” value in data set [3] (p.o., combined with emorfazone 28.8 mg/kg, theoretical additive dose) is on record as 168.8 mg/kg. Moreover, the “ED30 dose obtained experimentally, with emorfazone 86” value in data set [3] (p.o., combined with emorfazone 86 mg/kg) was 110 mg/kg. In addition, the “theoretical additive ED30 dose, with emorfazone 86” value in data set [3] (p.o., combined with emorfazone 86 mg/kg, theoretical additive dose) is listed as 112.5 mg/kg. Besides, the “theoretical additive LD50 dose, with emorfazone 240” value in data set [4] is 945 mg/kg. Also, the median lethal dose (LD50) at 168 h was determined as 1260 mg/kg in “in vivo” and 1000 mg/kg in the data set “in vivo” (LD50 dose obtained experimentally, with emorfazone 240, p.o., combined with emorfazone 240 mg/kg). In addition, in data set [5] (combination with 100 mg/kg of emorfazone), the “inhibitory effect in combination with emorfazone” value is recorded as “not essentially affected”.
For `CCOc1c(N2CCOCC2)cnn(C)c1=O` [Emorfazone, 4-ethoxy-2-methyl-5-morpholino-3(2H)-pyridazinone], the ED50 in data set [1] is 40 mg/kg; in data set [2] it was 18 mg/kg. Further, the ED30 in data set [3] was found to be 115 mg/kg. Moreover, the “inhibition of the biosynthesis of prostaglandin (emorfazone)” value in data set [6] is reported as “does not inhibit the biosynthesis of prostaglandin”. In data set [5] (100 mg/kg, used alone), the “inhibitory effect of emorfazone alone” value was “did not show any significant effect when used alone”.
